Results published in paper PMC11258351, “PK/PD investigation of antiviral host matriptase/TMPRSS2 inhibitors in cell models” (Scientific Reports, 2024).
“Also recorded” adds a separate entry of the source.

What was measured:
[1] = Prediction of in vivo human PK parameters from hepatocyte clearance; type: in vitro ADME; conditions: for Classification (extraction type) / Extraction ratio EH: predicted; for Predicted Cl, CLH: predicted from hepatocyte Clint, fu = 1
CYP2D6 = CYP2D6 (Homo sapiens, UniProt P10635); assay: Fluorometric CYP2D6 activity assay in human hepatic microsomes; conditions: human liver microsomes, protease inhibitors at 50 µM, 15 min 37 °C
Chain of CYP2D6 (P10635 whole entry): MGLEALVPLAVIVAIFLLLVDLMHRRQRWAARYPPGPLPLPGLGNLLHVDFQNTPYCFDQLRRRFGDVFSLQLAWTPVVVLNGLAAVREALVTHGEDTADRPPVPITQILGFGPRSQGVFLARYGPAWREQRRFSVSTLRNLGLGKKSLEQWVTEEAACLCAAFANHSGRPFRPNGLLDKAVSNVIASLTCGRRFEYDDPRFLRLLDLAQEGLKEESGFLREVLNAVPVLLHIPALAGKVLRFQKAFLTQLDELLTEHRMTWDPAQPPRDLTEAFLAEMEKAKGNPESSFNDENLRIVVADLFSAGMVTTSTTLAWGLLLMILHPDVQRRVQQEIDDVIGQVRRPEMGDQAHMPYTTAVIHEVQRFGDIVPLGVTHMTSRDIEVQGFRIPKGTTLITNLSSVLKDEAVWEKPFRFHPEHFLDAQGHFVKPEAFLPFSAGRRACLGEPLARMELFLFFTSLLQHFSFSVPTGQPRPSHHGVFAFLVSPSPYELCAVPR

CYP3A4 = CYP3A4 (Homo sapiens, UniProt P08684); assay: Fluorometric CYP3A4 activity assay in human hepatic microsomes; conditions: human liver microsomes, 10, 25 and 50 µM
Chain of CYP3A4 (P08684 whole entry): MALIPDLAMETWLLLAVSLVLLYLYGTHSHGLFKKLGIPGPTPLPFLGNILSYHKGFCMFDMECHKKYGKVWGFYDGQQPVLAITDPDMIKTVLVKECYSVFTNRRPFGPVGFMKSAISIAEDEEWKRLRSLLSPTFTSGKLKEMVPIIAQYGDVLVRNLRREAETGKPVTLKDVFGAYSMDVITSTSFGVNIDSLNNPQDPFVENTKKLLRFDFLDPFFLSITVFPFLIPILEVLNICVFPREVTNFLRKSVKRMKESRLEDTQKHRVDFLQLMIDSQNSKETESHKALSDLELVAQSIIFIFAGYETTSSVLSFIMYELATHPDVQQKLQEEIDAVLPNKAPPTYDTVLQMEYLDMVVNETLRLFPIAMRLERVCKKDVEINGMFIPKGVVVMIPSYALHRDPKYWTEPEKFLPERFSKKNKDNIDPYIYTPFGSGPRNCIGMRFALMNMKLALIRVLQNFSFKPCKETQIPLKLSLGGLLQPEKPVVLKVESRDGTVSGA

CYP2C9 = CYP2C9 (Homo sapiens, UniProt P11712); assay: Fluorometric CYP2C9 activity assay in human hepatic microsomes; conditions: human liver microsomes, protease inhibitors at 50 µM, 15 min 37 °C
Chain of CYP2C9 (P11712 whole entry): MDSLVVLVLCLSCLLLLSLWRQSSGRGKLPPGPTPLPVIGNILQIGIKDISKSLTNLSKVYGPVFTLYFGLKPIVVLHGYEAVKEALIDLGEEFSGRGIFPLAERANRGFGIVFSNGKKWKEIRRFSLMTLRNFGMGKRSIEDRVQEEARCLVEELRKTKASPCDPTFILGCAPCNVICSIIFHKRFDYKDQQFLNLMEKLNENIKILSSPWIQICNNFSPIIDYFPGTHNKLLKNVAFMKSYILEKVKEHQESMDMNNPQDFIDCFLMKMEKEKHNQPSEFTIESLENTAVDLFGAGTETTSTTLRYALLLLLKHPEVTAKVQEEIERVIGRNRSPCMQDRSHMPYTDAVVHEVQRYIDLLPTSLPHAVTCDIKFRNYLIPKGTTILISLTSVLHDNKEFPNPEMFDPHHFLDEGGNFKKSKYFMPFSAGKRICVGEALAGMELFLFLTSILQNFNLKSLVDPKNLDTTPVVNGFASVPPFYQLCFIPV

[2] = system: primary human hepatocytes; conditions: 50 μM; cited from earlier work
[3] = system: human primary hepatocytes; assay: Depletion of inhibitors in human primary hepatocyte suspension (LC-MS/MS); conditions: primary human hepatocytes, 10 µM; for Parent compound retained at the 120-min sampling point: % of 0-min concentration, mean ± S.E.M.; for Sampling interval at which significant depletion was first observed: sampling 0-120 min
[4] = as above; conditions: human, cryopreserved primary human hepatocytes in suspension; for CLint scaled at 10 µM: intrinsic clearance from primary human hepatocytes scaled to whole liver/body weight
H1N1 PR8 = system: H1N1 PR8; set-up: method as in PMID 23365447; conditions: Calu-3 cells; cited from earlier work
CYP2C19 = CYP2C19 (Homo sapiens, UniProt P33261); assay: Fluorometric CYP2C19 activity assay in human hepatic microsomes; conditions: human liver microsomes, protease inhibitors at 50 µM, 15 min 37 °C
Chain of CYP2C19 (P33261 whole entry): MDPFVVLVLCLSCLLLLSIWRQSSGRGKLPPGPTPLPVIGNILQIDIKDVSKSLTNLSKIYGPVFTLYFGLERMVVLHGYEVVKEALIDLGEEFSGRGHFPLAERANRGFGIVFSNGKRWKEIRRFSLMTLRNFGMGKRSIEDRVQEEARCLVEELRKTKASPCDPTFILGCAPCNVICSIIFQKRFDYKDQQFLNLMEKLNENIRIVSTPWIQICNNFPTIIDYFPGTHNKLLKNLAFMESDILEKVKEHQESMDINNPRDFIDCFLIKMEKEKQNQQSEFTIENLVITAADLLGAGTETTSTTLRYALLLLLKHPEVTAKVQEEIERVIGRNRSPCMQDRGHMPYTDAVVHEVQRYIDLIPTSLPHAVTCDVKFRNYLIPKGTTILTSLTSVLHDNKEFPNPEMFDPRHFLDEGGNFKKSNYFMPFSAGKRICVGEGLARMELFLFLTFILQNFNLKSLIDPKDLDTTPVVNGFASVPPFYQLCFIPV

CYP1A2 = molecular target: T1, CYP1A2 (Homo sapiens, UniProt P05177); assay: Fluorometric CYP1A2 activity assay in human hepatic microsomes; conditions: human liver microsomes, protease inhibitors at 50 µM, 15 min 37 °C
T1 sequence (P05177 1-516): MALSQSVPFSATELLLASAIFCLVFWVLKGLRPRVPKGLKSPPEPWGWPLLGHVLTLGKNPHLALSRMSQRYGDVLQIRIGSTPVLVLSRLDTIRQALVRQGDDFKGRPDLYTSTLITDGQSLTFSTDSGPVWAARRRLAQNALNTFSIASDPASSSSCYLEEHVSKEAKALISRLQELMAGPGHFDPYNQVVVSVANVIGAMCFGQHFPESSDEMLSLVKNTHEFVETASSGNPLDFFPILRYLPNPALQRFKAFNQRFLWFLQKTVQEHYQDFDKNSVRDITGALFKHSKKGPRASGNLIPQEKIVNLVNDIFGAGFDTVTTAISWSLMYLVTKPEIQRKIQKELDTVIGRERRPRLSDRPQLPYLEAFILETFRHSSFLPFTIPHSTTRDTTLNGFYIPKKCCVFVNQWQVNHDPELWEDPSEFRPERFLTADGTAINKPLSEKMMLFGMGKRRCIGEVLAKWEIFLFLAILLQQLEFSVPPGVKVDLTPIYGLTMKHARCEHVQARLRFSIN

Calu-3 cells = system: Calu-3 cells; set-up: method as in PMID 32703818; conditions: 50 μM; cited from earlier work
H3N2 IAV = system: H3N2 IAV; set-up: method as in PMID 23527573; conditions: Calu-3 cells; cited from earlier work
H1N1 IAV = system: H1N1 IAV; set-up: method as in PMID 23527573; conditions: Calu-3 cells; cited from earlier work
SARS-CoV-2 = system: SARS-CoV-2; set-up: method as in PMID 32703818; conditions: Calu-3 cells, 50 μM, 24 h p.i.; cited from earlier work
[5] = system: cynomolgus monkey hepatocytes; set-up: method as in PMID 31391268; conditions: cited from earlier work
α-1 acidic glycoprotein = system: α-1 acidic glycoprotein; set-up: method as in PMID 37865989; conditions: cited from earlier work
[6] = system: H9N2 IAV strain A/quail/Shantou/782/00; type: cell-based, influenza A virus; conditions: MDCK-II cells, MOI 0.01, 50 µM, 24 h

## N=C(N)c1cccc(C[C@H](NS(=O)(=O)c2cccc(NC(=O)CCN)c2)C(=O)N2CCC(CCN)CC2)c1 [MI-21]
[1]
  Classification (extraction type): Intermediate
  Extraction ratio EH: 0.53
  Predicted Cl, CLH: 10.92
CYP2D6
  Inhibition of CYP2D6 activity: No significant CYP inhibitory potential
CYP3A4
  Effect on CYP3A4 enzyme activity: did not cause significant reduction; also recorded: did not significantly suppress
CYP2C9
  Inhibition of CYP2C9 activity: No significant CYP inhibitory potential
[2]
  Cell toxicity: no cell toxicity
[3]
  Parent compound retained at the 120-min sampling point: 16.6 ± 1.6%
  Sampling interval at which significant depletion was first observed: 30 min
[4]
  half-life at 10 µM: 0.52 h
  CLint scaled at 10 µM: 147 mL/min/kg
H1N1 PR8
  Inhibition of replication of H1N1 PR8: promising inhibition
CYP2C19
  Inhibition of CYP2C19 activity: No significant CYP inhibitory potential
CYP1A2
  Inhibition of CYP1A2 activity: No significant CYP inhibitory potential

## N=C(N)c1cccc(C[C@H](NS(=O)(=O)c2cccc(-c3ccc(Cl)cc3Cl)c2)C(=O)N2CCC(CCN)CC2)c1.O=C(O)C(F)(F)F.O=C(O)C(F)(F)F [MI-432, reference compound]
Calu-3 cells
  Influence on Calu-3 cell viability: without influencing Calu-3 cell viabilitiy significantly
H3N2 IAV
  Inhibition of proteolytic activation and replication of H3N2 IAV: notable efficacy
H1N1 IAV
  Inhibition of proteolytic activation and replication of H1N1 IAV: notable efficacy
SARS-CoV-2
  Reduction of SARS-CoV-2 viral titers compared to control samples: 75 fold

## COc1ccc(-c2cccc(S(=O)(=O)N[C@@H](Cc3cccc(C(=N)N)c3)C(=O)N3CCC(N)CC3)c2)c(OC)c1 [MI-472]
[1]
  Classification (extraction type): Intermediate
  Extraction ratio EH: 0.36
  Predicted Cl, CLH: 7.40
[5]
  Treatment time after which significant conversion was seen: 60 to 120 min
CYP2D6
  Inhibition of CYP2D6 activity: No significant CYP inhibitory potential
CYP3A4
  Effect on CYP3A4 enzyme activity: significant inhibitory effect
CYP2C9
  Inhibition of CYP2C9 activity: No significant CYP inhibitory potential
[3]
  Parent compound retained at the 120-min sampling point: 65.1 ± 5.5%
  Sampling interval at which significant depletion was first observed: 30 min
[4]
  half-life at 10 µM: 3.84 h
  CLint scaled at 10 µM: 19.8 mL/min/kg
α-1 acidic glycoprotein
  Interaction with α-1 acidic glycoprotein: complex formation
[6]
  H9N2 viral spread / formation of viral foci: only slightly reduced formation of viral foci
CYP2C19
  Inhibition of CYP2C19 activity: No significant CYP inhibitory potential
CYP1A2
  Inhibition of CYP1A2 activity: No significant CYP inhibitory potential
